Key:
[1] = Motor coordination in rats (rotarod, Dunham and Miya 1957); settings: for TD50: rat, rotarod, po
[2] = Emotional conditioning response (CER) in rats (Brady, Skinner box); type: in vivo
Excerpt: The method utilized that was published by Brady (1956) using a Skinner Box and a combination of a sound, a light and an electrical shock to produce anxiety in the test animals.
The more an animal is anxious, the less important is the score. When a test compound is a powerful anxiolytic, the value of the score is proportional to the dosage.

[3] = Potentiation of narcotic effect of Veronal; settings: in vivo
[4] = Convulsions induced by pentamethylenetetrazol in rats; type: in vivo; settings: for ED50: Rattus norvegicus, oral, protection against pentamethylenetetrazol, read-out: ED50 (and C.L.) (converted)
Protocol: The method utilized was according to the method published by Everett and Richards (1944) and Banziger (1965). The pentamethylenetetrazol was given subcutaneously (125 mg/kg) and the test compounds were given orally suspended in a 1% carboxymethyl cellulose solution.

Structure (SMILES) | TD50 [1] [mg/kg] | Number of Responses, After - CER ([2]; 1.25 mg/kg/os) | Number of Responses, Before - CER ([2]; 1.25 mg/kg/os) | Number of Responses, CER ([2]; 1.25 mg/kg/os) | Number of Responses, After - CER ([2]; 2.5 mg/kg/os) | Number of Responses, Before - CER ([2]; 2.5 mg/kg/os) | Number of Responses, CER ([2]; 2.5 mg/kg/os) | Number of Responses, After - CER ([2]; 5 mg/kg/os) | Number of Responses, Before - CER ([2]; 5 mg/kg/os) | Number of Responses, CER ([2]; 5 mg/kg/os) | narcotic effect of a minimal dose of Veronal [3] | ED50 [4] [mg/kg] | % Protected Animals ([4]; Time 90 min.) [%] | % Protected Animals ([4]; Time 120 min.) [%] | % Protected Animals ([4]; Time 180 min.) [%] | % Protected Animals ([4]; Time 240 min.) [%] | other results
C#CCN1C(=O)CN=C(c2ccccc2)c2cc(Cl)ccc21 [Compound 1, 7-chloro-2,3-dihydro-5-phenyl-1-propargyl-1H-1,4-benzodiazepin-2-one] | 67.9 | 77.83 ± 20.41 | 94.67 ± 13.86 | 27.50 ± 11.32 | 112.30 ± 17.56 | 142.10 ± 20.03 | 62.10 ± 9.59 | 128.75 ± 17.13 | 127.13 ± 20.89 | 63.50 ± 14.96 | potentiate the narcotic effect of a minimal dose of Veronal | 10.6 | 48 | 46 | 37 | 10 | % Uncoordinated Animals ([1]; 48 mg/kg/os): 25%; % Uncoordinated Animals ([1]; 68 mg/kg/os): 50%; % Uncoordinated Animals ([1]; 96 mg/kg/os): 75%; dose needed for same motor uncoordination as after Compound 3 or 4 ([1]; oral): about five times more; activity in antagonizing CER compared with Compound 3 ([2]; rat, in vivo): about twice as active as Compound 3; effectiveness in reducing anxiety compared with Composition 4 ([2]; rat, in vivo): twice as effective in reducing anxiety as Composition 4; % Protected Animals ([4]; 5 mg/kg/os, pentamethylenetetrazol 125 mg/kg s.c.): 10%; % Protected Animals ([4]; 10 mg/kg/os, pentamethylenetetrazol 125 mg/kg s.c.): 50%; % Protected Animals ([4]; 20 mg/kg/os, pentamethylenetetrazol 125 mg/kg s.c.): 80%; duration of protection against pentamethylenetetrazol compared with compounds 3 or 4 ([4]; rat, in vivo): protects against pentamethylenetetrazol for longer periods of time than compounds 3 or 4
C#CCN1C(=O)CN=C(c2ccccc2Cl)c2cc(Cl)ccc21 [Compound 4, 7-chloro-2,3-dihydro-5-(2-chlorophenyl)-1-propargyl-1,H-1,4-benzodiazepine-2-one] | 14.9 | 86.43 ± 22.13 | 81.28 ± 16.17 | 26.25 ± 4.57 | 79.75 ± 15.24 | 66.75 ± 11.80 | 31.12 ± 6.54 | 79.00 ± 20.03 | 65.00 ± 14.89 | 38.37 ± 8.76 | potentiate the narcotic effect of a minimal dose of Veronal | 8.5 | 37 | 18 | 0 | 0 | % Uncoordinated Animals ([1]; 12 mg/kg/os): 37.5%; % Uncoordinated Animals ([1]; 17 mg/kg/os): 50%; % Uncoordinated Animals ([1]; 24 mg/kg/os): 87.5%; Potency Against Comp. 1 ([1]; C.L. (3.09. 6.79), X^2 parallelism 0.005): 4.58; % Protected Animals ([4]; 6 mg/kg/os, pentamethylenetetrazol 125 mg/kg s.c.): 20%; % Protected Animals ([4]; 8.5 mg/kg/os, pentamethylenetetrazol 125 mg/kg s.c.): 60%; % Protected Animals ([4]; 12 mg/kg/os, pentamethylenetetrazol 125 mg/kg s.c.): 70%
